Paper PMC6107548, “Identification and characterization of aspartyl-tRNA synthetase inhibitors against Mycobacterium tuberculosis by an integrated whole-cell target-based approach” (Scientific Reports, 2018)
Values after ≈ are worked out from the molar mass of the structure shown. Where two headings read alike, the source gives them in different places.

Key:
HepG2 = HepG2 cytotoxicity; type: cell-based; conditions: Homo sapiens, Table S2
M.tb H37Rv (intra) = test: MIC against intracellular M.tb H37Rv; type: cell-based; conditions: Mycobacterium tuberculosis, Table S2
Mt-AspRS [1] = target: T1, Mt-AspRS (Mycobacterium tuberculosis, UniProt P9WFW3); test: tRNA-independent ATP release assay (coupled enzymes, NADPH fluorescence); type: biochemical; design: made in house; conditions: Table S2, 0.5 μM enzyme, 2 mM ADPCP, mean of two replicates
M.tuberculosis H37Rv = test: MIC against M. tuberculosis H37Rv (extracellular); type: cell-based; conditions: Mycobacterium tuberculosis
[2] = system: M.bovis BCG pMV261::Mt-AspRS; test: microbe, parasite or virus in culture; type: cell-based, Mycobacterium bovis BCG; conditions: for MIC: Mycobacterium tuberculosis variant bovis BCG, BCG
Mt-AspRS [3] = target: T1, Mt-AspRS; test: biochemical
M.bovis BCG empty pMV261 = test: microbe, parasite or virus in culture; type: cell-based; conditions: Mycobacterium tuberculosis variant bovis BCG
Mt-AspRS [4] = target: T1, Mt-AspRS; test: Mechanistic characterization, competition with ADPCP in tRNA-independent reaction; type: biochemical; design: made in house; conditions: ADPCP 0-4000 μM; inhibitor 50 and 100 μM
N[C@@H](CC(=O)O)C(=O)O = test: purified protein, by the assay type; conditions: pH 7.7; 37.0 °C
[5] = Table S2, extracellular, read-out: MIC M.tb H37Rv (extra)
[6] = read-out: MIC M. bovis BCG pMV261::AspRS
[7] = read-out: MIC M.bovis BCG pMV261::Mt-AspRS
[8] = read-out: MIC M. bovis empty pMV261 BCG
[9] = read-out: MIC M.bovis BCG empty pMV261
[10] = Table S1, read-out: MIC M.tuberculosis H37Rv

T1 sequence (P9WFW3 whole entry): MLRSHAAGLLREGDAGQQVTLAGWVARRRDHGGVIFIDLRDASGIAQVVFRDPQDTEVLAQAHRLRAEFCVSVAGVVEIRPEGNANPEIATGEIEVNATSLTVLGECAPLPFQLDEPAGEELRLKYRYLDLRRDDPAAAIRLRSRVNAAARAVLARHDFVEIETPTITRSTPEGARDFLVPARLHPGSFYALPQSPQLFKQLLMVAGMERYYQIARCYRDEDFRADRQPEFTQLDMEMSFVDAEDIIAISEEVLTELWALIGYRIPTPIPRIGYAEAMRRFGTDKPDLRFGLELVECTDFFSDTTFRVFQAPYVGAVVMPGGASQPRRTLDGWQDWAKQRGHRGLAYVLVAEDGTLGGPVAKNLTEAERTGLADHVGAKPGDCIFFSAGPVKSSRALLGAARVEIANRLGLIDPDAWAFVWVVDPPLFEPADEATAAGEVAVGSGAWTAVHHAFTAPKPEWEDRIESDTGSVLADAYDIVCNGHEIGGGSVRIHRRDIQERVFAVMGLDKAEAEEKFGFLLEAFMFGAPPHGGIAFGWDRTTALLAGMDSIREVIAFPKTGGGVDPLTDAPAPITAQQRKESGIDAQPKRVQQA

`N#Cc1ccc(COc2ccc3c(c2)CCN(C(=O)/C=C/c2ccc(Nc4ccc(F)cn4)cc2)C3)cc1` [GSK85A] gave an IC50 (HepG2) of 25.1 µM, an MIC (M.tb H37Rv (intra)) greater than 50.1 µM and an IC50 (Mt-AspRS [1]) of 3.37 µM. The MIC (M.tuberculosis H37Rv; [5]) was 2.5 µM (≈ 1.26 µg/mL).

With `O=C(O)c1ccc(Nc2nc(-c3cccs3)cs2)cc1O` [GSK93A] the “Ratio (MIC shift)” value [2] was 4.3, the MIC [2, 6] was 1.7 µM (≈ 0.541 µg/mL) and the MIC [2, 7] was 1.7 µM (≈ 0.541 µg/mL). For the same molecule, the IC50 (HepG2) was greater than 100 µM, the MIC (M.tb H37Rv (intra)) was greater than 50.1 µM and the IC50 (Mt-AspRS [3]) was 35.6 µM. The MIC (M.bovis BCG empty pMV261; [8]) was 0.4 µM (≈ 0.127 µg/mL), the MIC (M.bovis BCG empty pMV261; [9]) was 0.4 µM (≈ 0.127 µg/mL) and the “mode of inhibition with regard to ADPCP” value (Mt-AspRS [4]) was “Reversible and non-competitive”. For the same molecule, the MIC (M.tuberculosis H37Rv; [10]) was 31.2 µM (≈ 9.95 µg/mL) and the MIC (M.tuberculosis H37Rv; [5]) was 31.2 µM (≈ 9.95 µg/mL).

`Nc1ccc(/C=C/C(=O)N2CCC(COc3cccnc3)CC2)cn1` [GSK92A] gave an IC50 (HepG2) greater than 100 µM, an MIC (M.tb H37Rv (intra)) greater than 50.1 µM and an IC50 (Mt-AspRS [1]) of 21.3 µM. It also gave an MIC (M.tuberculosis H37Rv; [5]) greater than 80 µM.

For `O=C1OC2(CCC(CNc3ccc(-c4cc(F)cc(F)c4)nn3)CC2)CN1c1cccnn1` (stereo not shown) [GSK97C], the “Ratio (MIC shift)” value [2] was 2.4, the MIC [2, 6] was 24.9 µM (≈ 11.3 µg/mL) and the MIC [2, 7] was 24.9 µM (≈ 11.3 µg/mL). For the same molecule, the IC50 (HepG2) was 40 µM, the MIC (M.tb H37Rv (intra)) was 3.16 µM (≈ 1.43 µg/mL) and the IC50 (Mt-AspRS [3]) was 1.12 µM. For the same molecule, the MIC (M.bovis BCG empty pMV261; [8]) was 10.5 µM (≈ 4.75 µg/mL), the MIC (M.bovis BCG empty pMV261; [9]) was 10.5 µM (≈ 4.75 µg/mL) and the “mode of inhibition with regard to ADPCP” value (Mt-AspRS [4]) was “Reversible and non-competitive”. The MIC (M.tuberculosis H37Rv; [10]) was 20 µM (≈ 9.05 µg/mL) and the MIC (M.tuberculosis H37Rv; [5]) was 20 µM (≈ 9.05 µg/mL).

“Mt-AspRS (Mycobacterium tuberculosis H37Rv)” gave a Km (N[C@@H](CC(=O)O)C(=O)O) of 13.8 ± 9.6 µM.
